{"source": "patent US20230203440A1", "about": "“AXIAL STEM CELLS, METHODS OF PRODUCING AND USES THEREOF” (HELMHOLTZ ZENTRUM MUNCHEN - DEUTSCHES FORSCHUNGSZENTRUM FUR …, priority 2020, published 2023)", "key": {"H9 hESC line": {"system": "H9 hESC line", "assay": "Axial stem cell derivation from hESCs by serial passaging in maintenance medium with ligands", "assay_type": "cell-based, human", "conditions": "for derivation of stable lines on addition of the ligand: added to maintenance medium", "protocol": "(§1) Cells were seeded as described above and treated with 10 μM CHIR for 24 hours. Afterwards cells were split at 1:20-1:30 ratio into Matrigel-coated 6-well plates containing maintenance medium (RPMI-1640 supplemented with L-Glutamine, 1× non-essential amino acids, 1× B-27 supplement without vitamin A and the respective ligands (see Table 1) and the cultures were incubated until they became confluent. Confluent cultures were routinely split at 1:10-1:20 ratio until the end of establishment phase defined at passage 9. Splitting was done with either Passaging solution XF or Versene (Life Technologies). FGF2-containing medium was prepared freshly every week, the media without FGF2—at least every 2 weeks. No manual colony picking or scraping off the differentiated cells was employed at any stage during the establishment of cell lines.\nTotal RNA was isolated using RNeasy mini kit (Qiagen). cDNA was synthesized from 0.2-1 μg of total RNA (normalized amount between samples within each experiment) using Verso cDNA synthesis kit (Thermo Scientific) according to manufacturers instructions. 1 μl of cDNA (1:5 dilutions) were used as template in 10 μl qPCR reactions. PCR was set up using either pre-designed Taqman Gene Expression Assays together with Taqman Gene Expression Master Mix (both from Thermo Scientific) or custom-designed primers together with Power SYBR Green master mix (Thermo Scientific). All primer and Taqman probe details are listed in, e.g., Table 2. Primer concentration in the reactions was 250 nM for all primers. PCR was performed on QuantStudio 12K Flex Real-Time PCR System (Thermo Scientific) using pre-defined cycling parameters. 2 technical replicates were run for each reaction. Taqman assays and primers used are listed in, e.g., Table 2. GAPDH served as a housekeeping gene in all experiments. Relative fold changes (FC) in gene expression were calculated using ΔΔCt method (Livak and Schmittgen, 2001). Results are presented as mean ΔΔCt±standard error of the mean between biological replicates, unless indicated otherwise. Plots were produced using ggplot2 package (Wickham, 2009) in RStudio software running R version 3.5.1 (R Core Team, 2018).\nFor immunofluorescent analysis, cells were seeded onto either matrigel-coated glass coverslips or into matrigel-coated 4-well μ-slides (Ibidi). For IF on differentiated motor neurons, AxCS lines were differentiated directly on the coverslips. […] Primary antibody dilutions (e.g., Table 3) in the blocking buffer were added and incubated overnight at 4° C. Next day, cells were washed with PBS 3 times and incubated with secondary antibodies diluted in PBS for 1 hours at RT. Coverslips were mounted using ProLong Gold mounting reagent with DAPI. Images were obtained at 63× magnification using Zeiss Axio Observer.Z1 epifluorescent microscope equipped with Apotome.2 and Zen software (Zeiss)."}, "hESCs": {"system": "hESCs", "assay": "Continuous CHIR99021 treatment of hESCs (time course, qPCR and RNA-seq)", "assay_type": "cell-based, human", "conditions": "continuous 10 μM treatment of hESCs, compared to transient activation for 24 hours", "protocol": "In time course experiments cells were dissociated using Accutase (Sigma) and seeded into 12-well plates at 2.5×10^5 cells per well in mTesR1 medium supplemented with 10 μM Y-27632 (R&D). 24 hours later medium was replaced with differentiation medium: RPMI-1640 with L-Glutamine and 1× B-27 supplement without insulin containing 10 μM CHIR99021 (Tocris). In case of beta-catenin overexpression, the procedure was the same, except that CHIR99021 was replaced with 1 μg/ml doxycycline (Clontech). All cell culture media components were from Life Technologies unless indicated otherwise.\nTotal RNA was isolated using RNeasy mini kit (Qiagen). cDNA was synthesized from 0.2-1 μg of total RNA (normalized amount between samples within each experiment) using Verso cDNA synthesis kit (Thermo Scientific) according to manufacturers instructions. […] Relative fold changes (FC) in gene expression were calculated using ΔΔCt method (Livak and Schmittgen, 2001). […]\n3 μg of total RNA were treated with TURBO DNase (Life Technologies) and purified using RNeasy Minelute RNA cleanup kit (Qiagen). RNA quality was assessed using microcapillary electrophoresis on Agilent 2100 Bioanalyzer with RNA Pico 6000 kit (Agilent) and only RNA with RIN values >8 was processed further. […] The quality of the libraries was assessed using Agilent 2100 Bioanalyzer with the DNA 1000 kit (Agilent). […] Sequencing depth was 12-14 Mio reads per sample. […]"}, "human iPSC line HMGU #1": {"system": "human iPSC line HMGU #1", "assay": "Axial stem cell derivation from human iPS cell line", "assay_type": "cell-based", "conditions": "10 μM CHIR99021 with inhibition of TGF-β, human iPSCs", "protocol": "as §1, with “FIG. 6: A) Schematic of axial stem cell derivation from human iPS cell line (HMGU #1). μM concentrations refer to CHIR99021. […] B) Quantitative qPCR analysis of marker gene expression in iPS-derived axial stem cell lines at passage 9. Expression is normalized to GAPDH and plotted as log2 fold change over undifferentiated parental iPS cell line. Error bars represent standard error of the mean between biological replicates (derivations). n=1 to 6. Cells” for “Cells”"}}, "data": [{"molecule": "FGF2", "values": [{"measurement": "sustained TBXT expression on passaging", "setting": "H9 hESC line; passaging in presence of CHIR99021 with or without FGF2", "result": "sustained expression required the presence of FGF2"}]}, {"molecule": "Cc1c[nH]c(-c2cnc(NCCNc3ccc(C#N)cn3)nc2-c2ccc(Cl)cc2Cl)n1", "note": "[CHIR99021]", "values": [{"measurement": "TBXT expression", "setting": "hESCs", "result": "sustained high level of TBXT"}, {"measurement": "marker expression of derived cell lines", "setting": "H9 hESC line; 5 μM CHIR99021 alone", "result": "high levels of SOX2 in conjunction with PAX6, but no T, CDX2, MIXL1 or EOMES"}, {"measurement": "marker expression of derived cell lines", "setting": "H9 hESC line; 5 μM CHIR99021 with FGF2", "result": "high levels of SOX2, TBXT, CDX2, MIXL1, EOMES and very low level or no PAX6"}, {"measurement": "marker expression of derived cell lines", "setting": "H9 hESC line; 7.5 μM CHIR99021", "result": "intermediate levels of TXBT and PAX6"}, {"measurement": "toxicity to conversion", "setting": "H9 hESC line; 10 μM CHIR99021, hESC", "result": "toxic to hESC conversion"}, {"measurement": "derivation of cell lines", "setting": "H9 hESC line; 5 or 7.5 μM CHIR99021, presence or absence of FGF2, hESCs", "result": "enabled the derivation of lines that exhibited compact stem cell colony morphology"}, {"measurement": "derivation of cell lines", "setting": "H9 hESC line; CHIR99021 lower than 5 μM", "result": "did not promote the formation of cell lines"}, {"measurement": "SOX2 expression of passaged progeny", "setting": "H9 hESC line; passaging beginning at 24 hours, in presence of CHIR99021", "result": "stably expressing SOX2 at a comparable level to undifferentiated hESCs"}, {"measurement": "derivation of axial cell lines", "setting": "human iPSC line HMGU #1", "result": "permissive for the derivation of SOX2/TXBT axial cell lines"}]}, {"molecule": "NC(=O)c1ccc(-c2nc(-c3ccc4c(c3)OCO4)c(-c3ccccn3)[nH]2)cc1", "note": "[SB-431542]", "values": [{"measurement": "spontaneous differentiation and colony compactness of the stem cell lines", "setting": "H9 hESC line; TGF-β inhibition", "result": "reduced spontaneous differentiation and maintained the lines as more compact colonies"}, {"measurement": "cell and colony morphology of derived lines", "setting": "H9 hESC line; TGF-β inhibitor applied to maintenance medium", "result": "created more compact cells and denser colonies"}]}, {"molecule": "TGF-β: Human recombinant TGF-β1 (Peprotech)", "values": [{"measurement": "derivation of stable lines on addition of the ligand", "setting": "H9 hESC line", "result": "prohibited the deviation of stable lines altogether"}]}, {"molecule": "BMP4: Human recombinant BMP4 (R&D Systems) (protein, UniProt P12644 293-408, looked up) Bone morphogenetic protein 4: SPKHHSQRARKKNKNCRRHSLYVDFSDVGWNDWIVAPPGYQAFYCHGDCPFPLADHLNSTNHAIVQTLVNSVNSSIPKACCVPTELSAISMLYLDEYDKVVLKNYQEMVVEGCGCR", "values": [{"measurement": "derivation of stable lines on addition of the ligand", "setting": "H9 hESC line", "result": "prohibited the deviation of stable lines altogether"}]}]}
